Results on 53 compounds are retold here after PubChem BioAssay AID1996.

≈ marks a conversion by molar mass, not a printed value.

For the data set the following is noted: buffer; pH 7.4; 200.0 µM.
`NC(=O)c1ccc(N2CCN(S(=O)(=O)c3cccs3)CC2)c([N+](=O)[O-])c1`: the kinetic solubility (as a rule, the concentration staying in solution when a stock, usually in DMSO, is diluted into the medium) is 2.3 µg/mL (≈ 5.8 µM).

In the case of `N#Cc1cccc(S(=O)(=O)NCc2nnc3ccccn23)c1`, the kinetic solubility was > 47 µg/mL.

`CSc1ccccc1NC(=O)c1cc(Cl)sc1Cl`: the solubility (kinetic) was 1.4 µg/mL (≈ 4.4 µM).

`Cc1cc(Cc2c(O)[nH]c(=S)[nH]c2=O)ccc1OC(C)C` returned a solubility (kinetic) of 34.8 µg/mL (≈ 114 µM).

On to `COc1ccc(NC(=S)NCc2ccc(F)cc2)c(OC)c1`, for which the kinetic solubility was > 48.1 µg/mL.

The compound `CC(C)(C)c1ccc(NC(=O)c2c(F)cccc2Cl)cc1` displayed a solubility (kinetic) of 1.1 µg/mL (≈ 3.6 µM).

`Cc1cc(/C(N)=N/OC(=O)Nc2cccc(C(F)(F)F)c2)no1` registered a kinetic solubility of 7.2 µg/mL (≈ 21.9 µM).

The compound `COc1ccccc1NC(=O)N1CCN(CCc2ccccc2)CC1` gave a kinetic solubility of 50.7 µg/mL (≈ 149 µM).

Turning to `O=C(COC(=O)CN1C(=O)NC2(CCCC2)C1=O)NCc1ccc(Cl)cc1Cl`, the kinetic solubility is > 64.2 µg/mL.

`Cc1ccc(S(=O)(=O)N(C)C)cc1NC(=O)C(C)OC(=O)C1CCCCC1` (stereo not drawn): the solubility (kinetic) is > 59.5 µg/mL.

Compound `Cc1cc(C)cc(NC(=O)COC(=O)CC2CCCC2)c1` had a solubility (kinetic) of 21.1 µg/mL (≈ 72.9 µM).

In the case of `CN(Cc1ccccc1)C(=O)COC(=O)c1ccc(Cl)cc1N`, the kinetic solubility was 2.4 µg/mL (≈ 7.21 µM).

In the case of `O=C(NCCN1CCOCC1)c1ccc(Cl)nc1`, the solubility (kinetic) was > 40.5 µg/mL.

As for `Cc1ccc(-n2c(C)c(C)c3c(NCCCO)ncnc32)cc1`, the kinetic solubility was > 46.6 µg/mL.

Compound `Cc1cccc(OCC(=O)NCc2nc(-c3ccccc3)no2)c1` displayed a kinetic solubility of 3.1 µg/mL (≈ 9.59 µM).

The compound `CSc1cccc(NC(=S)NCCCO)c1` registered a kinetic solubility of 37.3 µg/mL (≈ 145 µM).

In the case of `NC(=O)Cn1cc(C(=O)C(=O)N2CCOCC2)c2ccccc21`, the solubility (kinetic) was > 47.3 µg/mL.

Regarding `COc1cc(Br)ccc1NC(=O)c1ccccc1-c1ccccc1C(=O)O`, the solubility (kinetic) is 53.3 µg/mL (≈ 125 µM).

For the compound `CC(C)CNC(=O)C1CCN(CC2CCCCC2)CC1.O=C(O)C(=O)O`, the solubility (kinetic) is > 55.6 µg/mL.

As for `COC(C(=O)Nc1ccc(Br)cc1F)c1ccccc1` (stereo not drawn), the solubility (kinetic) came out at 26.1 µg/mL (≈ 77.2 µM).

`COc1ccccc1-c1c(C#N)c(N)nc2c1CCC2` returned a kinetic solubility of 5 µg/mL (≈ 18.8 µM).

Compound `CC(NCc1cccc(S(=O)(=O)N(C)C)c1)c1ccc(F)cc1` (stereo not drawn) returned a solubility (kinetic) of 37.1 µg/mL (≈ 110 µM).

The compound `O=C(c1ccc(Cl)cc1)N1CCn2c1nc1ccccc12` had a kinetic solubility of 1.1 µg/mL (≈ 3.69 µM).

Compound `Cc1cc(=O)oc2cc(NC(=O)c3ccccc3Cl)ccc12` came in with a kinetic solubility of 8 µg/mL (≈ 25.5 µM).

For `Cc1ccc(CNC(=O)COC(=O)CN2C(=O)C3CC=CCC3C2=O)cc1` (stereo not drawn), the kinetic solubility was > 55.6 µg/mL.

On to `Cc1ccc(S(=O)(=O)NC(=O)Nc2ccc(F)c(F)c2)cc1`, for which the kinetic solubility came to 44.1 µg/mL (≈ 135 µM).

Take `Cc1nnc(SCC(=O)NC2CCCCC2)n1N`: the kinetic solubility is > 40.4 µg/mL.

Regarding `O=C(COC(=O)c1cc(-c2ccccc2)nc2ccccc12)NC1CC1`, the kinetic solubility was determined as 6.6 µg/mL (≈ 19.1 µM).

Take `O=C(Cc1ccsc1)NCC(=O)Nc1ccc(F)c(F)c1`: the solubility (kinetic) was > 46.5 µg/mL.

The compound `Cc1ccc(C)c(NC(=O)CCN2CCCC(C)C2)c1` (stereo not drawn) gave a solubility (kinetic) of 38.5 µg/mL (≈ 140 µM).

With `COCCn1c(C)cc(C(=O)COC(=O)c2ccc([N+](=O)[O-])o2)c1C`, the kinetic solubility was > 52.5 µg/mL.

Turning to `CC1CCN(C(=O)CSc2nc3ccccc3c(=O)[nH]2)CC1`, the solubility (kinetic) is > 47.6 µg/mL.

Turning to `CCC(=O)Nc1ccc2nc3c(=O)[nH]c(=S)[nH]c3nc2c1`, the kinetic solubility was > 45.2 µg/mL.

With `COc1ccc(C)cc1S(=O)(=O)NC(C)C(=O)NC1CC1` (stereo not drawn), the kinetic solubility is > 46.9 µg/mL.

`COc1ccc(C(O)Cc2nccn2C)cc1` (stereo not drawn): the solubility (kinetic) was > 34.8 µg/mL.

`Cc1c(NC(=O)c2ccccc2NC(=O)c2ccccc2)cccc1C(=O)O` displayed a kinetic solubility of 54.5 µg/mL (≈ 146 µM).

Turning to `CN(C(=O)COC(=O)c1cccc(F)c1)c1ccccc1`, the kinetic solubility worked out at 32 µg/mL (≈ 111 µM).

Take `Cc1ccc(NC(=O)N2CCCCCC2)cc1C`: the solubility (kinetic) is > 37 µg/mL.

Compound `O=C(COc1cccnc1[N+](=O)[O-])Nc1ccc(Cl)cc1F` returned a solubility (kinetic) of 4.6 µg/mL (≈ 14.1 µM).

Compound `O=C1CCCN1c1ccc(S(=O)(=O)N2CCCCC2)cc1` registered a solubility (kinetic) of 22.5 µg/mL (≈ 73 µM).

Regarding `O=Cc1c(-c2ccc(F)cc2)nc2ccccn12`, the kinetic solubility came out at 2.5 µg/mL (≈ 10.4 µM).

As for `Cc1cccc(-c2nnc(SCC(=O)N3CCCC3)o2)c1`, the solubility (kinetic) was > 45.5 µg/mL.

With `CCCC/C(=N/O)c1c(C)[nH]c2ccccc12`, the kinetic solubility stood at 30.7 µg/mL (≈ 133 µM).

For `CCOc1ccccc1NC(=O)Nc1cccc(NC(C)=O)c1`, the solubility (kinetic) is > 47 µg/mL.

As for `CC(=O)c1c2c3c(cccc3n(C)c1=O)C(=O)c1ccccc1-2`, the solubility (kinetic) is < 0.6 µg/mL.

`CC1(C)CC2CC(C)(CN2/C=C2/CCCCC2=O)C1` (stereo not drawn) showed a kinetic solubility of 22.6 µg/mL (≈ 86.5 µM).

On to `O=C(COc1ccc(Cl)cc1)NCCN1CCCCC1`, for which the kinetic solubility was > 44.5 µg/mL.

`O=C1Nc2ccccc2C1=Nc1ccc(Br)cc1`: the kinetic solubility was found to be 6.7 µg/mL (≈ 22.2 µM).

For `CCOC(=O)Cc1csc(NC(=O)CCCC(=O)O)n1`, the solubility (kinetic) is > 45 µg/mL.

With `CC(=O)c1ccc(N2CCN(C(=O)Nc3ccc(Cl)cc3)CC2)cc1`, the solubility (kinetic) worked out at 1.3 µg/mL (≈ 3.63 µM).

Take `CCCCNC(=O)C1CCN(c2nc(C)cc(C)n2)CC1`: the kinetic solubility came to 8.9 µg/mL (≈ 30.6 µM).

Turning to `N#Cc1ccc(Oc2ncccn2)cc1`, the kinetic solubility was > 29.6 µg/mL.

The compound `O=C(Nc1cccc([N+](=O)[O-])c1)N1CCCCCC1` registered a kinetic solubility of 37.5 µg/mL (≈ 142 µM).
